# Measurements from ChEMBL document CHEMBL1149262, “Monoamine transporter binding, locomotor activity, and drug discrimination properties of 3-(4-substituted-phenyl)tropane-2-carboxylic acid methyl ester isomers” (J Med Chem, 2004).
# Activity calls are given as the source filed them. No cut-off for these calls is given here.
# Legend:
# [1] = tested on: Mus musculus; test: Activity in CD1 mouse assessed as circling at 1 mg/kg, ip after 4 hrs; assay type: functional, organism-based; design: dose 1 mg/kg
# [2] = tested on: Mus musculus; test: Activity in CD1 mouse assessed as slight or intermittent hyperactivity at 100 mg/kg, ip after 4 hrs; assay type: functional, organism-based; design: dose 100 mg/kg
# [3] = tested on: Mus musculus; test: Activity in CD1 mouse assessed as hyperactivity at 1 mg/kg, ip after 4 hrs; assay type: functional, organism-based; design: dose 1 mg/kg
# [4] = tested on: Mus musculus; test: Locomotor activity in CD1 mouse assessed as stimulation at 1 mg/kg, ip after 3 hrs relative to control; assay type: functional; settings: route intraperitoneal
# [5] = tested on: Rattus norvegicus; test: Drug discrimination effect in CD Albino rat assessed as percent of rat choosing cocaine lever at 0.3 mg/kg, ip; assay type: functional; settings: route intraperitoneal
# [6] = tested on: Mus musculus; test: Activity in CD1 mouse assessed as hind limb splay at 100 mg/kg, ip after 4 hrs; assay type: functional, organism-based; design: dose 100 mg/kg; settings: Hindlimb
# [7] = tested on: Mus musculus; test: Locomotor activity in CD1 mouse assessed as stimulation at 0.1 mg/kg, ip after 2 hrs relative to control; assay type: functional; settings: route intraperitoneal
# [8] = tested on: Mus musculus; test: Activity in CD1 mouse assessed as stereotypy at 1 mg/kg, ip after 4 hrs; assay type: functional, organism-based; design: dose 1 mg/kg
# [9] = tested on: Mus musculus; test: Activity in CD1 mouse assessed as stereotypy at 10 mg/kg, ip after 4 hrs; assay type: functional, organism-based; design: dose 10 mg/kg
# [10] = tested on: Rattus norvegicus; test: Drug discrimination effect in CD Albino rat assessed as percent of rat choosing cocaine lever at 0.17 mg/kg, ip; assay type: functional; settings: route intraperitoneal
# [11] = target: Sodium-dependent dopamine transporter (Homo sapiens, UniProt Q01959); test: Displacement of [3H]WIN-35428 from DAT
# Sequence of Sodium-dependent dopamine transporter (Q01959 whole entry): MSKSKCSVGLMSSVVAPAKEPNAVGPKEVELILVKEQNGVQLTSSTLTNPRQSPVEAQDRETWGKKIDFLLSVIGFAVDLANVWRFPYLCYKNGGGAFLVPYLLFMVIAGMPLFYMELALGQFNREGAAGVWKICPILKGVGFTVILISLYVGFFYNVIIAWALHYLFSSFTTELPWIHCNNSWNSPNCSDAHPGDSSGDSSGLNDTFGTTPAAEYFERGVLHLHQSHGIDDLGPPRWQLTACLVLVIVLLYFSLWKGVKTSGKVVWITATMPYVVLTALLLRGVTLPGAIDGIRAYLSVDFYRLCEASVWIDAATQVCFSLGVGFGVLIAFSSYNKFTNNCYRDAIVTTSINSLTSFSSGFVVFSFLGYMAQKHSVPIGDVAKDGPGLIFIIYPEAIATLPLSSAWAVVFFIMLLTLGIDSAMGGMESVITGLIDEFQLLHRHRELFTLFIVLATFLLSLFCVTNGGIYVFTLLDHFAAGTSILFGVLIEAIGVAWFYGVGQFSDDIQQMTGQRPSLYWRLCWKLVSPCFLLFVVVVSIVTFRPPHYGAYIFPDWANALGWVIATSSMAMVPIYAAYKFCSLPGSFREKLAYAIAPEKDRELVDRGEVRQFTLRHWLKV
# [12] = target: Sodium-dependent noradrenaline transporter (Homo sapiens, UniProt P23975); test: Displacement of [3H]nisoxetine from NET
# Sequence of Sodium-dependent noradrenaline transporter (P23975 whole entry): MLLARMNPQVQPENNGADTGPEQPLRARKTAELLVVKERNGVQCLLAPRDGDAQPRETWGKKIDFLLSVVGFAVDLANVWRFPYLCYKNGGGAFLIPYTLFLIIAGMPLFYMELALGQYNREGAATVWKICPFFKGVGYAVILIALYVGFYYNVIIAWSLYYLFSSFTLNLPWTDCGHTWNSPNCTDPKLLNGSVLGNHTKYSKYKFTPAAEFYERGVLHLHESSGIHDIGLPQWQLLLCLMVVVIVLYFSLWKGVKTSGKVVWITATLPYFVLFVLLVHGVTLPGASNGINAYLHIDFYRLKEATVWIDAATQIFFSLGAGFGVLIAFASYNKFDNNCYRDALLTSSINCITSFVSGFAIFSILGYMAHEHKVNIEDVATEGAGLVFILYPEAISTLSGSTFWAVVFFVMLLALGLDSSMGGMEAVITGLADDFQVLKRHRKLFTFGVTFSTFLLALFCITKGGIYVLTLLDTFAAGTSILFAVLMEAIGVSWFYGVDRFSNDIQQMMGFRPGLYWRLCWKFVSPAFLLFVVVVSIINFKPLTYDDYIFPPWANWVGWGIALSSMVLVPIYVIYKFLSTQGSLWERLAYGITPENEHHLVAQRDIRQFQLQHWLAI
# [13] = tested on: Mus musculus; test: Locomotor activity in CD1 mouse assessed as stimulation at 0.1 mg/kg, ip after 4 hrs relative to control; assay type: functional; settings: route intraperitoneal
# [14] = tested on: Mus musculus; test: Locomotor activity in CD1 mouse assessed as stimulation at 3 mg/kg, ip after 4 hrs relative to control; assay type: functional; settings: route intraperitoneal
# [15] = tested on: Mus musculus; test: Activity in CD1 mouse assessed as death at 100 mg/kg, ip after 4 hrs; assay type: functional, organism-based; design: dose 100 mg/kg
# [16] = tested on: Rattus norvegicus; test: Drug discrimination effect in CD Albino rat assessed as percent of rat choosing cocaine lever at 0.1 mg/kg, ip; assay type: functional; settings: route intraperitoneal
# [17] = tested on: Mus musculus; test: Locomotor activity in CD1 mouse assessed as stimulation at 3 mg/kg, ip after 2 hrs relative to control; assay type: functional; settings: route intraperitoneal
# [18] = tested on: Mus musculus; test: Locomotor activity in CD1 mouse assessed as stimulation at 0.3 mg/kg, ip after 4 hrs relative to control; assay type: functional; settings: route intraperitoneal
# [19] = tested on: Mus musculus; test: Locomotor activity in CD1 mouse assessed as stimulation at 1 mg/kg, ip after 1 hr relative to control; assay type: functional; settings: route intraperitoneal
# [20] = target: Sodium-dependent serotonin transporter (Homo sapiens, UniProt P31645)
# Sequence of Sodium-dependent serotonin transporter (P31645 whole entry): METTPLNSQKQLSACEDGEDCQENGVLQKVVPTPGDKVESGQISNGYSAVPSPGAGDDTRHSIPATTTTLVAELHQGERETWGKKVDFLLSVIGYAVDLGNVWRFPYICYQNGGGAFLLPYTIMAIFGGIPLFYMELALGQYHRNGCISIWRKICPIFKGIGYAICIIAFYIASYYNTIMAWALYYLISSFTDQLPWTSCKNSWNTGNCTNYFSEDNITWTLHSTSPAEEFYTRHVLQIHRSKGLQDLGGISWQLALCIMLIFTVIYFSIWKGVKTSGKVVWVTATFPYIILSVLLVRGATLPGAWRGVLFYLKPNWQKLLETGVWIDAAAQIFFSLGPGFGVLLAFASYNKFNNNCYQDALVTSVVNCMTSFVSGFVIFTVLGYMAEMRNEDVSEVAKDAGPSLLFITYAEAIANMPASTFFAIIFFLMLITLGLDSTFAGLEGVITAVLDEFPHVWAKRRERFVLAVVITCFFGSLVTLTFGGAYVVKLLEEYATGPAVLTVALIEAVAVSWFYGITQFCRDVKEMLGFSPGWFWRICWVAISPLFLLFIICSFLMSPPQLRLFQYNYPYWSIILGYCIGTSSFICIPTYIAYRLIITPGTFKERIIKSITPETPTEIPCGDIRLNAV
# Description: Displacement of [3H]paroxetine from 5HTT
# [21] = tested on: Rattus norvegicus; test: Cocaine discrimination in ip dosed CD Albino rat; assay type: functional
# [22] = tested on: Mus musculus; test: Locomotor activity in CD1 mouse assessed as stimulation at 3 mg/kg, ip after 1 hr relative to control; assay type: functional; settings: route intraperitoneal
# [23] = tested on: Mus musculus; test: Locomotor activity in CD1 mouse assessed as stimulation at 1 mg/kg, ip after 4 hrs relative to control; assay type: functional; settings: route intraperitoneal
# [24] = tested on: Mus musculus; test: Locomotor activity in CD1 mouse assessed as stimulation at 1 mg/kg, ip after 2 hrs relative to control; assay type: functional; settings: route intraperitoneal
# [25] = tested on: Mus musculus; test: Locomotor activity in ip dosed CD1 mouse after 1 hr relative to cocaine; assay type: functional
# [26] = tested on: Mus musculus; test: Locomotor activity in CD1 mouse assessed as stimulation at 0.1 mg/kg, ip after 3 hrs relative to control; assay type: functional; settings: route intraperitoneal
# [27] = tested on: Mus musculus; test: Activity in CD1 mouse assessed as slight or intermittent hyperactivity at 10 mg/kg, ip after 4 hrs; assay type: functional, organism-based; design: dose 10 mg/kg
# [28] = tested on: Mus musculus; test: Locomotor activity in ip dosed CD1 mouse in peak hour; assay type: functional
# [29] = tested on: Mus musculus; test: Locomotor activity in CD1 mouse assessed as stimulation at 0.1 mg/kg, ip after 1 hr relative to control; assay type: functional; settings: route intraperitoneal
# [30] = tested on: Mus musculus; test: Locomotor activity in CD1 mouse assessed as stimulation at 0.3 mg/kg, ip after 1 hr relative to control; assay type: functional; settings: route intraperitoneal
# [31] = tested on: Mus musculus; test: Locomotor activity in CD1 mouse assessed as stimulation at 0.3 mg/kg, ip after 2 hrs relative to control; assay type: functional; settings: route intraperitoneal
# [32] = tested on: Mus musculus; test: Locomotor activity in CD1 mouse assessed as stimulation at 0.3 mg/kg, ip after 3 hrs relative to control; assay type: functional; settings: route intraperitoneal
# [33] = tested on: Mus musculus; test: Activity in CD1 mouse assessed as circling at 10 mg/kg, ip after 4 hrs; assay type: functional, organism-based; design: dose 10 mg/kg
# [34] = tested on: Mus musculus; test: Activity in CD1 mouse assessed as stereotypy at 100 mg/kg, ip after 4 hrs; assay type: functional, organism-based; design: dose 100 mg/kg
# [35] = tested on: Mus musculus; test: Locomotor activity in CD1 mouse assessed as stimulation at 3 mg/kg, ip after 3 hrs relative to control; assay type: functional; settings: route intraperitoneal
# [36] = tested on: Mus musculus; test: Locomotor activity in CD1 mouse assessed as stimulation at 30 mg/kg, ip after 4 hrs relative to control; assay type: functional; settings: route intraperitoneal
# [37] = tested on: Mus musculus; test: Locomotor activity in CD1 mouse assessed as stimulation at 10 mg/kg, ip after 2 hrs relative to control; assay type: functional; settings: route intraperitoneal
# [38] = tested on: Mus musculus; test: Locomotor activity in CD1 mouse assessed as stimulation at 10 mg/kg, ip after 1 hr relative to control; assay type: functional; settings: route intraperitoneal
# [39] = tested on: Rattus norvegicus; test: Drug discrimination effect in CD Albino rat assessed as percent of rat choosing cocaine lever at 3 mg/kg, ip; assay type: functional; settings: route intraperitoneal
# [40] = tested on: Mus musculus; test: Locomotor activity in CD1 mouse assessed as stimulation at 30 mg/kg, ip after 1 hr relative to control; assay type: functional; settings: route intraperitoneal
# [41] = tested on: Mus musculus; test: Locomotor activity in CD1 mouse assessed as stimulation at 30 mg/kg, ip after 3 hrs relative to control; assay type: functional; settings: route intraperitoneal
# [42] = tested on: Rattus norvegicus; test: Drug discrimination effect in CD Albino rat assessed as percent of rat choosing cocaine lever at 5.6 mg/kg, ip; assay type: functional; settings: route intraperitoneal
# [43] = tested on: Mus musculus; test: Locomotor activity in CD1 mouse assessed as stimulation at 30 mg/kg, ip after 2 hrs relative to control; assay type: functional; settings: route intraperitoneal
# [44] = tested on: Mus musculus; test: Activity in CD1 mouse assessed as hypoactivity at 100 mg/kg, ip after 4 hrs; assay type: functional, organism-based; design: dose 100 mg/kg
# [45] = tested on: Mus musculus; test: Locomotor activity in CD1 mouse assessed as stimulation at 10 mg/kg, ip after 4 hrs relative to control; assay type: functional; settings: route intraperitoneal
# [46] = tested on: Mus musculus; test: Activity in CD1 mouse assessed as flattened body posture at 100 mg/kg, ip after 4 hrs; assay type: functional, organism-based; design: dose 100 mg/kg
# [47] = tested on: Rattus norvegicus; test: Drug discrimination effect in CD Albino rat assessed as percent of rat choosing cocaine lever at 1 mg/kg, ip; assay type: functional; settings: route intraperitoneal
# [48] = tested on: Mus musculus; test: Locomotor activity in CD1 mouse assessed as stimulation at 10 mg/kg, ip after 3 hrs relative to control; assay type: functional; settings: route intraperitoneal
# [49] = tested on: Mus musculus; test: Activity in CD1 mouse assessed as convulsions at 100 mg/kg, ip after 4 hrs; assay type: functional, organism-based; design: dose 100 mg/kg
# [50] = tested on: Rattus norvegicus; test: Drug discrimination effect in CD Albino rat assessed as percent of rat choosing cocaine lever at 10 mg/kg, ip; assay type: functional; settings: route intraperitoneal
smiles,measurement,setting,value
COC(=O)[C@@H]1C2CC[C@H](C[C@@H]1c1ccc(I)cc1)N2C,Activity,[1],Active
same,Activity,[2],Active
same,Activity,[3],Active
same,Activity,[4],2099%
same,Activity,[5],100%
same,Activity,[6],Active
same,Activity,[7],38%
same,Activity,[8],Active
same,Activity,[9],Active
same,Activity,[10],25%
same,IC50,[11],1.3 nM
same,IC50,[12],36 nM
same,Ki,[12],22 nM
same,Activity,[13],62%
same,Activity,[14],794%
same,Activity,[15],Active
same,Activity,[16],22%
same,Activity,[17],145%
same,Activity,[18],900%
same,Activity,[19],1489%
same,Ki,[20],0.38 nM
same,ED50,[21],0.2 mg/kg
same,Activity,[22],770%
same,Activity,[23],2546%
same,Activity,[24],1721%
same,Ratio,[25],4.4
same,Activity,[26],-25%
same,Activity,[27],Active
same,ED50,[28],0.4 mg/kg
same,Activity,[29],-12%
same,Activity,[30],415%
same,Activity,[31],1765%
same,Activity,[32],1289%
same,Activity,[33],Active
same,Activity,[34],Active
same,Activity,[35],327%
COC(=O)[C@H]1[C@H]2CCC(C[C@H]1c1ccc(Cl)cc1)N2C,Activity,[4],154%
same,Activity,[36],-27%
same,Activity,[37],169%
same,Activity,[38],51%
same,Activity,[14],69%
same,Activity,[15],Active
same,Activity,[39],0%
same,Activity,[40],-46%
same,Activity,[17],128%
same,Activity,[19],6%
same,Activity,[41],125%
same,Activity,[42],13%
same,Activity,[22],16%
same,Activity,[23],45%
same,Activity,[24],182%
same,Activity,[43],-27%
same,Activity,[44],Active
same,Activity,[45],41%
same,Activity,[46],Active
same,Activity,[47],13%
same,Activity,[48],114%
same,Activity,[35],107%
same,Activity,[49],Active
same,Activity,[50],13%
